Test results as given in ChEMBL document CHEMBL2401646 (Bioorg Med Chem Lett, 2013).
Converted amounts (≈) assume the structure as drawn.

Legend:
[1] = Antitumor activity against human U87MG cells xenografted in nu/nu CD1 mouse model assessed as maximum tumor regression at 50 mg/kg, po qd for 14 days; format: functional, U-87MG ATCC
[2] = Antitumor activity against human U87MG cells xenografted in nu/nu CD1 mouse model assessed as tumor growth inhibition at 200 mg/kg, po qd for 14 days; format: functional, U-87MG ATCC; conditions: U-87 MG, 336 h, read-out: TGI
Salmonella typhimurium [3] = assay: Mutagenic activity in Salmonella typhimurium TA100 by Ames test in presence of liver S9 fraction; format: toxicity, organism-based; conditions: salmonella enterica subsp. enterica serovar typhimurium
Salmonella typhimurium [4] = assay: Mutagenic activity in Salmonella typhimurium TA98 by Ames test in presence of liver S9 fraction; format: toxicity, organism-based; conditions: salmonella enterica subsp. enterica serovar typhimurium
Mus musculus [5] = assay: Toxicity in human U87MG cells xenografted nu/nu CD1 mouse model assessed as body weigh loss at 200 mg/kg, po qd for 14 days; format: organism-based, U-87MG ATCC; set-up: dose 200 mg/kg, route oral; conditions: in vivo, 336 h
[6] = Antitumor activity against human U87MG cells xenografted in nu/nu CD1 mouse model assessed as tumor growth inhibition at 100 mg/kg, po bid for 14 days; format: functional, U-87MG ATCC; conditions: U-87 MG, 336 h, read-out: TGI
[7] = Antitumor activity against human U87MG cells xenografted in nu/nu CD1 mouse model assessed as maximum tumor regression at 200 mg/kg, po qd for 14 days; format: functional, U-87MG ATCC
MKN-45 = assay: Antitumor activity against human MKN45 cells xenografted in po dosed nu/nu CD1 mouse model assessed as tumor growth inhibition administered qd for 14 days; format: functional; conditions: MKN-45, po, 336 h
Mus musculus [8] = assay: Inhibition of MET autophosphorylation at Y1234/1235 in human MKN45 cells xenografted in mouse at 100 mg/kg, po up to 8 hrs; format: functional; conditions: MKN-45, 8 h
Aurora kinase B = Aurora kinase B (Homo sapiens, UniProt Q96GD4); assay: Inhibition of aurora-B in human HT-29 cells assessed as phosphorylation of histone H3 at Ser10 in presence of mouse plasma; format: cell-based
[9] = target: T1, ALK tyrosine kinase receptor (Homo sapiens, UniProt Q9UM73); assay: Inhibition of ALK autophosphorylation in human Karpas-299 cells; format: cell-based
[10] = target: Macrophage-stimulating protein receptor (Homo sapiens, UniProt Q04912); assay: Inhibition of RON (unknown origin) autophosphorylation
[11] = target: T1, ALK tyrosine kinase receptor; assay: Inhibition of ALK (unknown origin) autophosphorylation
[12] = Solubility of the compound at around physiological pH; format: physicochemical
[13] = AUC (0 to last) in Sprague-Dawley rat at 20 mg/kg, po; format: ADME, organism-based; set-up: time 0 - last, dose 20 mg/kg, route oral; conditions: plasma
[14] = Half life in Sprague-Dawley rat at 2 mg/kg, iv; format: ADME, organism-based; set-up: dose 2 mg/kg, route intravenous; conditions: in vivo
[15] = Clearance in Sprague-Dawley rat at 2 mg/kg, iv; format: ADME, organism-based; set-up: dose 2 mg/kg, route intravenous; conditions: in vivo
[16] = Volume of distribution at steady state in CD1 mouse at 2 mg/kg, iv; format: ADME, organism-based; set-up: dose 2 mg/kg, route intravenous; conditions: in vivo, read-out: Vdss
Mus musculus [17] = assay: Toxicity in human SNU5 cells xenografted nu/nu CD1 mouse model assessed as body weigh loss at 50 mg/kg, po qd for 20 days; conditions: in vivo, 480 h
Mus musculus [18] = assay: Toxicity in human SNU5 cells xenografted nu/nu CD1 mouse model assessed as body weigh loss at 200 mg/kg, po qd for 20 days; conditions: in vivo, 480 h
Mus musculus [19] = assay: Toxicity in human SNU5 cells xenografted nu/nu CD1 mouse model assessed as body weigh loss at 100 mg/kg, po qd for 20 days; conditions: in vivo, 480 h
SNU-5 = assay: Antitumor activity against human SNU5 cells xenografted in nu/nu CD1 mouse model assessed as maximum tumor regression at 200 mg/kg, po qd for 20 days

T1 sequence (Q9UM73 whole entry): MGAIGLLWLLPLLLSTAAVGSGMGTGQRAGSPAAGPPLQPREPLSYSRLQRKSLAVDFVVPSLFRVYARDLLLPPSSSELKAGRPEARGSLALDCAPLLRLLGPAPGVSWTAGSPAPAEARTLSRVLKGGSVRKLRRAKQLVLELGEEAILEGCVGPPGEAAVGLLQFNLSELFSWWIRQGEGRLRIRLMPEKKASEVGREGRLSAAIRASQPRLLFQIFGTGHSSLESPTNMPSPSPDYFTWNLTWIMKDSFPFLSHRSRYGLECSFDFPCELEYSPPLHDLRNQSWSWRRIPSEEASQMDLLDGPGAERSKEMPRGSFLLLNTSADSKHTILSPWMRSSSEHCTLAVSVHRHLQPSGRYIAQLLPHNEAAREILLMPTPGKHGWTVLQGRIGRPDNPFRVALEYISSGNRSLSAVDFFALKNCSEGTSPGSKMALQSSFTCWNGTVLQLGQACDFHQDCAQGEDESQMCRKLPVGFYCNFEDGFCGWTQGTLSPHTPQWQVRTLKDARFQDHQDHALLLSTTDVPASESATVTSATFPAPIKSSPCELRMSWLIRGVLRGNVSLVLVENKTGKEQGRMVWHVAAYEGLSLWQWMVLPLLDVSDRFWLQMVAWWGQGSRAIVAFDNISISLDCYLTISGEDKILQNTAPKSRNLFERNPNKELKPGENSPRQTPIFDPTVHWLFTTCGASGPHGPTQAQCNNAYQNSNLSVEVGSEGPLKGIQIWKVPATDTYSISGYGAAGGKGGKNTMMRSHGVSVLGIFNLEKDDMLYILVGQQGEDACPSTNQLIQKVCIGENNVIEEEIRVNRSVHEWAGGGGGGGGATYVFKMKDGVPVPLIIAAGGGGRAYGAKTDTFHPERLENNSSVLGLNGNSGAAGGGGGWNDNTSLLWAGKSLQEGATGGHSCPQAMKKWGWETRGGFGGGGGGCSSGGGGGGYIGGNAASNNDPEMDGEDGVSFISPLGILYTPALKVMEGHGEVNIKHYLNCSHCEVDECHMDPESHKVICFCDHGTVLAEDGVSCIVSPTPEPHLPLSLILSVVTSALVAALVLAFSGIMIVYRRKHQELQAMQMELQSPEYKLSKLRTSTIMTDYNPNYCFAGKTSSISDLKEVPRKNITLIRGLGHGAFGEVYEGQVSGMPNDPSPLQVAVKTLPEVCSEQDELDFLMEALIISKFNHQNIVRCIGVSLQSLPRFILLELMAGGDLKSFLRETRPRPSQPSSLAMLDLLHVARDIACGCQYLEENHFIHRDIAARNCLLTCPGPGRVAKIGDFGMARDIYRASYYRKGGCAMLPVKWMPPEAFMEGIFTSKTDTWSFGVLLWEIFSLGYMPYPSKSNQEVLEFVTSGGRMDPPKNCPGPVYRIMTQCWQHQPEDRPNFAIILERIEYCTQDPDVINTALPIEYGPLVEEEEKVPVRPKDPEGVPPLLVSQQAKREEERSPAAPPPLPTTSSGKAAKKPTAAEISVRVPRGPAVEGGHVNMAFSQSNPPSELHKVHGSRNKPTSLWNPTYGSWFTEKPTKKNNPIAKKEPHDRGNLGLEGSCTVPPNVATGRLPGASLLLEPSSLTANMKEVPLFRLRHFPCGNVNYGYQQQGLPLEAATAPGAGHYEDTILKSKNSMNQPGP
Sequence of Aurora kinase B (Q96GD4 whole entry): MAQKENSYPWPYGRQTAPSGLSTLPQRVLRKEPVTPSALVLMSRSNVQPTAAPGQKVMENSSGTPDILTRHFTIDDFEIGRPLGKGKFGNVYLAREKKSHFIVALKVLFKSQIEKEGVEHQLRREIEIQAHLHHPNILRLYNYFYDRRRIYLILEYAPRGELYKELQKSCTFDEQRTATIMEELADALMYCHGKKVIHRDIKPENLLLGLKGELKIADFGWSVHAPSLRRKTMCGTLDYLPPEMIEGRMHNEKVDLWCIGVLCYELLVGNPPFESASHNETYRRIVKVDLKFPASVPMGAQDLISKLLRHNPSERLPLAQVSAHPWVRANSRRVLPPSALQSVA
Sequence of Macrophage-stimulating protein receptor (Q04912 25-304 limits assumed): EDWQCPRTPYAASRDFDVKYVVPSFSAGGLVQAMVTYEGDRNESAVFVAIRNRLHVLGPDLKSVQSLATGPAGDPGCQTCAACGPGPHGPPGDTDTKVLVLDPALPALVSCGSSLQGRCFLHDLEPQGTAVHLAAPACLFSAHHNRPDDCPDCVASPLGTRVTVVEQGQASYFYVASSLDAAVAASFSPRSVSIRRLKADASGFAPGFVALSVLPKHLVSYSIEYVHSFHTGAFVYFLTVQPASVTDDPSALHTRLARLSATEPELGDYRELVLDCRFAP
Sequence of Macrophage-stimulating protein receptor (Q04912 310-1400 limits assumed): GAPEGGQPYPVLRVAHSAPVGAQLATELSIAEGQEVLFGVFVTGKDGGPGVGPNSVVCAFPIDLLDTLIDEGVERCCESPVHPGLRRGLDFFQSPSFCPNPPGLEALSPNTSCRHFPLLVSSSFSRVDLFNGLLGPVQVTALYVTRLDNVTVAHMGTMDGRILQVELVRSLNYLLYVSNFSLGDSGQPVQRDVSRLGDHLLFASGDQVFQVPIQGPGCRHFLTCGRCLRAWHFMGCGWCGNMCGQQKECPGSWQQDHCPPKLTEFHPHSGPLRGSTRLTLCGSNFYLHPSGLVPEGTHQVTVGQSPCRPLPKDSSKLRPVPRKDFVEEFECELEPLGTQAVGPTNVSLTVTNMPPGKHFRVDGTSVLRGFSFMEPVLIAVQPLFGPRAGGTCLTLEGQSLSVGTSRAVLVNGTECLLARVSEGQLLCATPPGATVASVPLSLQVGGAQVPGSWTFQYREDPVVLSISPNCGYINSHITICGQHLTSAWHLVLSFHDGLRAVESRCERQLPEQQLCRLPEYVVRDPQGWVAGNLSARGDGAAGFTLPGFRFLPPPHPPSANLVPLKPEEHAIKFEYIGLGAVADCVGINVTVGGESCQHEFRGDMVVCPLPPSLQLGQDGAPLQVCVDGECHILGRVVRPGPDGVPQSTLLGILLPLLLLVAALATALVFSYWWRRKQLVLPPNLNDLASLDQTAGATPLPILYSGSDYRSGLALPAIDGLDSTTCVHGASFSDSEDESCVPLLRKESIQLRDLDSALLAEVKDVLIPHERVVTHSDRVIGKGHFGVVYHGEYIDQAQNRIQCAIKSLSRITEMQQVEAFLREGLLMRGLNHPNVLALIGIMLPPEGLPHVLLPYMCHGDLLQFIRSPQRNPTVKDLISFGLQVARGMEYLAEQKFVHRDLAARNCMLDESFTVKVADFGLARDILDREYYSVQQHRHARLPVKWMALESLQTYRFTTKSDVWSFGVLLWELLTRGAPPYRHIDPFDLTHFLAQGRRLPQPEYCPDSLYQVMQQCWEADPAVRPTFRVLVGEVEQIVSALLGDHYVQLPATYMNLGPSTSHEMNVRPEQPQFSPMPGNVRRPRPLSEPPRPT

Which results are given for `C[C@@H](Oc1c(N)ncc2c(C3=CCN(C(N)=O)CC3)coc12)c1c(Cl)ccc(F)c1Cl`?
Activity [1]: 0%; inhibition in vivo at 200 mg/kg [2]: 94%; Activity (Salmonella typhimurium [3]): Non-toxic; Activity (Salmonella typhimurium [4]): Non-toxic; Activity (Mus musculus [5]): 0%; inhibition in vivo at 100 mg/kg [6]: 97%; Activity [7]: 8%; ED50 (MKN-45): 50 mg/kg; inhibition in vivo at 100 mg/kg (Mus musculus [8]): > 80%; IC50 (Aurora kinase B): > 10000 nM; IC50 [9]: 500 nM; IC50 [10]: 25 nM; IC50 [11]: 40 nM; solubility [12]: 1 µM (≈ 0.465 µg/mL); AUC(0-t) [13]: 6200 ng·h/mL; half-life [14]: 2 h; clearance [15]: 39 mL/min/kg; Vd [16]: 3.8 L/kg; Activity (Mus musculus [17]): 4%; Activity (Mus musculus [18]): 4%; Activity (Mus musculus [19]): 2%; Activity (SNU-5): 80%
